Reference: PMC8624998, “Synthesis and Antiproliferative Evaluation of 3-Chloroazetidin-2-ones with Antimitotic Activity: Heterocyclic Bridged Analogues of Combretastatin A-4” (Pharmaceuticals, 2021)
Read-outs that look alike come from different tables or passages of the source. Marks after values point to notes of the source that are not given here.

Columns and labels:
[1] = test system: MCF-7 cells; assay: Cell viability assay (MTT/AlamarBlue), antiproliferative activity; format: cell-based, human; details: for IC50: Homo sapiens, MCF7, 72 h, read-out: IC50 (MCF-7, 72 h)
From the text: […]. The introduction of the halogen substituent at C-3 was examined in an effort to investigate the effect on the activity of this substituent, and subsequently optimising the cytotoxic effects against MCF-7 human breast cancer cells.
The human breast carcinoma cell line MCF-7 was purchased from the European Collection of Animal Cell Cultures (ECACC). Triple negative breast cancer Hs578T cells and its invasive variant Hs578Ts(i)8 were a kind gift from Dr. Susan McDonnell, School of Chemical and Bioprocess Engineering, University College Dublin. U266 cells were a gift from Dr. Tony McElligott, School of Medicine, St James’s Hospital, Trinity College Dublin. HT-29 cells were purchased from the European Collection of Cell Cultures (originating from a human adenocarcinoma of the colon). The human breast carcinoma cell line MDA-MB-231 and the HL-60 cells derived from a patient with acute myeloid leukaemia were both obtained from ECACC (Salisbury, UK). The SW-480 cells were a kind gift from Dr. Brian Flood, School of Biochemistry and Immunology, Trinity College Dublin. HEK-293T (normal epithelial embryonic kidney cells) were cultured in Dulbecco’s Modified Eagle’s Medium (DMEM) with GlutaMAXTM-I in the absence of non-essential amino acids. Human breast cancer MCF-7 cells and multiple myeloma U266 cells were cultured in Minimum Essential Media (MEM) with GlutaMAX™-I, supplemented with 1% (v/v) non-essential amino acids, 10% 2(v/v) foetal bovine serum (FBS) and 1% (v/v) penicillin/streptomycin 5000 U/mL. MDA-MB-231 cells were maintained in DMEM supplemented with 10% (v/v) foetal bovine serum, 2 mM L-glutamine and 100 μg/mL penicillin/streptomycin (complete medium). Colon cancer HT-29 and SW-480 and triple negative breast cancer Hs578T and its invasive variant Hs578T8i were cultured in DMEM with GlutaMAX™-I, with the same supplement in the absence of non-essential amino acids. Leukaemia HL-60 cancer cells were cultured in Roswell Park Memorial Institute Media (RPMI-1640) with GlutaMAX™-I, supplemented with 10% FCS media, and 100 μg/mL penicillin/streptomycin as above. Cell numbers were monitored using a haemocytometer. Cell culture flasks were incubated in a humidified incubator (5% CO2/95% air) at 37 °C. All cell lines were sub-cultured three times per week with trypsinisation using TrypLE Express (1X) required for adherent cell lines.
. All stock solutions and serial dilution in ethanol/DMSO were stored at -20 °C. All cells were seeded at a density of 2.5 × 10^4 cells/mL in a 96-well plate (200 μL per well). The cells were incubated in a […] atmosphere at 37 °C for 24 h, then treated with test compound (2 μL of stock solutions per 200-microlitre well) in ethanol to obtain a concentration range of 1 nM–200 μM for the study. The plates were then re-incubated for a further 72 h. Control wells contained an equivalent volume of the vehicle ethanol or DMSO (1% v/v). MTT cell viability assay: The culture medium was removed, and the cells were washed with phosphate buffered saline (PBS, […]). MTT (dissolved in PBS, […]) was added to obtain a final concentration of MTT (1 mg/mL). Cells were incubated at 37 °C for 3 h in the dark. Solubilisation was commenced by the addition of DMSO ([…]) and the cells were maintained at 20 °C in the dark for 20 min before reading the absorbance to ensure complete colour diffusion. The absorbance value of control cells (no added compound) was set to 100% cell viability and absorbance versus cell density per well was determined to assess cell viability using Graph-Pad Prism software. AlamarBlue cell viability assay: Cells were seeded in 96-well plates (e.g., MCF-7, 5 × 10^3 cells/well) and (HT-29 cells, 1 × 10^3 cells/well) and (HL-60 cells, 1 × 10^4 cells/well) with a total volume per well of 200 µL. After 24 h, cells were treated in triplicate with serial dilutions of CA-4 or β-lactam analogues (0.001–100 μM), medium alone or vehicle (1% ethanol (v/v)). […]

Question: What does the source list for `COc1cc(C2N(c3ccc(SC)cc3)C(=O)C2(Cl)Cl)cc(OC)c1OC` (stereo not shown) [Compound 13c, 3,3-Dichloro-1-(4-(methylthio)phenyl)-4-(3,4,5-trimethoxyphenyl) azetidin-2-one]?
Answer: inhibition of cell viability at a concentration of 10 μM ([1]; MCF-7, 72 h): 20% (10 μM)^c; melting point: 117 to 119 °C

Question: With `COc1cc(N2C(=O)C(Cl)C2c2ccc(Cl)cc2)cc(OC)c1OC` (stereo not shown) [Compound 10b, 3-Chloro-4-(4-chlorophenyl)-1-(3,4,5-trimethoxyphenyl)azetidin-2-one] as the molecule, how does the IC50 ([1]; MCF-7, 72 h) read?
Answer: 1300 ± 170 nM

Question: With `COc1ccc(N2C(=O)C(Cl)C2c2cc(OC)c(OC)c(OC)c2)cc1` (stereo not shown) [Compound 12a, 3-Chloro-1-(4-methoxyphenyl)-4-(3,4,5-trimethoxyphenyl)azetidin-2-one] as the molecule, how does the IC50 ([1]; MCF-7, 72 h) read?
Answer: 14800 ± 1580 nM

Question: What about the melting point of the same molecule?
Answer: 101 to 102 °C

Question: With `COc1cc(N2C(=O)C(Cl)C2c2ccc(Oc3ccccc3)cc2)cc(OC)c1OC` (stereo not shown) [Compound 10g, 3-Chloro-1-(3,4,5-trimethoxyphenyl)-4-(4-phenoxyphenyl)azetidin-2-one] as the molecule, how does the IC50 ([1]; MCF-7, 72 h) read?
Answer: 64100 ± 7300 nM

Question: What does the source list for `COc1ccc(C2C(Cl)C(=O)N2c2cc(OC)c(OC)c(OC)c2)cc1[N+](=O)[O-]` (stereo not shown) [Compound 10m, 3-Chloro-4-(4-methoxy-3-nitrophenyl)-1-(3,4,5-trimethoxyphenyl) azetidin-2-one]?
Answer: IC50 ([1]; MCF-7, 72 h): 3090 ± 410 nM; melting point: 93 to 95 °C

Question: What does the source list for `COc1ccc(C2C(Cl)C(=O)N2c2cc(OC)cc(OC)c2)cc1` (stereo not shown) [Compound 14a, 3-Chloro-1-(3,5-dimethoxyphenyl)-4-(4-methoxyphenyl)azetidin-2-one]?
Answer: IC50 ([1]; MCF-7, 72 h): 680 ± 160 nM; melting point: 93 to 94 °C

Question: Which IC50 ([1]; MCF-7, 72 h) does the source give for `COc1cc(N2C(=O)C(Cl)(Cl)C2c2ccc(Br)cc2)cc(OC)c1OC` (stereo not shown) [Compound 11c, 4-(4-Bromophenyl)-3,3-dichloro-1-(3,4,5-trimethoxyphenyl)azetidin-2-one] here?
Answer: 18200 ± 1830 nM

Question: What about the melting point of the same molecule?
Answer: 150 to 152 °C

Question: Which IC50 ([1]; MCF-7, 72 h) does the source give for `COc1cc(N2C(=O)C(Cl)C2c2ccc(OCc3ccccc3)cc2)cc(OC)c1OC` (stereo not shown) [Compound 10h, 4-(4-Benzyloxyphenyl)-3-chloro-1-(3,4,5-trimethoxyphenyl)azetidin-2-one] here?
Answer: 59900 ± 6990 nM

Question: And the melting point?
Answer: 96 to 98 °C

Question: Which IC50 ([1]; MCF-7, 72 h) does the source give for `COc1cc(N2C(=O)C(Cl)C2c2ccc([N+](=O)[O-])cc2)cc(OC)c1OC` (stereo not shown) [Compound 10d, 3-Chloro-1-(3,4,5-trimethoxyphenyl)-4-(4-nitrophenyl)azetidin-2-one] here?
Answer: 4370 ± 610 nM

Question: What does the source list for `COc1cc(C2C(Cl)C(=O)N2c2ccc(SC)cc2)cc(OC)c1OC` (stereo not shown) [Compound 12c, 3-Chloro-1-(4-(methylthio)phenyl)-4-(3,4,5-trimethoxyphenyl) azetidin-2-one]?
Answer: inhibition of cell viability at a concentration of 10 μM ([1]; MCF-7, 72 h): 10% (10 μM) ^c; melting point: 101 to 103 °C

Question: Which “inhibition of cell viability at a concentration of 10 μM” value ([1]; MCF-7, 72 h) does the source give for `CCOc1ccc(N2C(=O)C(Cl)(Cl)C2c2cc(OC)c(OC)c(OC)c2)cc1` (stereo not shown) [Compound 13b, 3,3-Dichloro-1-(4-ethoxyphenyl)-4-(3,4,5-trimethoxyphenyl)azetidin-2-one] here?
Answer: 40% (10 μM)^c

Question: And the melting point?
Answer: 133 to 134 °C

Question: For `COc1cc(N2C(=O)C(Br)C2c2ccc(SC)cc2)cc(OC)c1OC` (stereo not shown) [Compound 16c, 3-Bromo-4-(4-(methylthio)phenyl)-1-(3,4,5-trimethoxyphenyl)azetidin-2-one], which IC50 ([1]; MCF-7, 72 h) is on record?
Answer: 613 ± 40 nM

Question: With `CCOc1ccc(C2C(Cl)C(=O)N2c2cc(OC)cc(OC)c2)cc1` (stereo not shown) [Compound 14b, 3-Chloro-1-(3,5-dimethoxyphenyl)-4-(4-ethoxyphenyl)azetidin-2-one] as the molecule, how does the IC50 ([1]; MCF-7, 72 h) read?
Answer: 45 ± 10 nM

Question: And the melting point?
Answer: 129 to 130 °C

Question: Which results are given for `CCOc1ccc(N2C(=O)C(Cl)C2c2cc(OC)c(OC)c(OC)c2)cc1` (stereo not shown) [Compound 12b, 3-Chloro-1-(4-ethoxyphenyl)-4-(3,4,5-trimethoxyphenyl)azetidin-2-one]?
Answer: inhibition of cell viability at a concentration of 10 μM ([1]; MCF-7, 72 h): 25% (10 μM) ^c; melting point: 113 to 115 °C

Question: What does the source list for `COc1cc(N2C(=O)C(Cl)(Cl)C2c2ccc([N+](=O)[O-])cc2)cc(OC)c1OC` (stereo not shown) [Compound 11d, 3,3-Dichloro-1-(3,4,5-trimethoxyphenyl)-4-(4-nitrophenyl)azetidin-2-one]?
Answer: IC50 ([1]; MCF-7, 72 h): 61600 ± 7610 nM; melting point: 116 to 118 °C

Question: Which IC50 ([1]; MCF-7, 72 h) does the source give for `COc1cc(N2C(=O)C(Cl)C2c2ccccc2)cc(OC)c1OC` (stereo not shown) [Compound 10a, 3-Chloro-1-(3,4,5-trimethoxyphenyl)-4-phenylazetidin-2-one] here?
Answer: 23400 ± 2800 nM

Question: With `COc1cc(N2C(=O)C(Cl)(Cl)C2c2ccc3ccccc3c2)cc(OC)c1OC` (stereo not shown) [Compound 11k, 3,3-Dichloro-1-(3,4,5-trimethoxyphenyl)-4-(naphthalen-2-yl)azetidin-2-one] as the molecule, how does the IC50 ([1]; MCF-7, 72 h) read?
Answer: 322 ± 40 nM

Question: What about the melting point of the same molecule?
Answer: 164 to 166 °C

Question: With `CCOc1ccc(C2N(c3cc(OC)cc(OC)c3)C(=O)C2(Cl)Cl)cc1` (stereo not shown) [Compound 15b, 3,3-Dichloro-1-(3,5-dimethoxyphenyl)-4-(4-ethoxyphenyl)azetidin-2-one] as the molecule, how does the IC50 ([1]; MCF-7, 72 h) read?
Answer: 273 ± 10 nM

Question: Which IC50 ([1]; MCF-7, 72 h) does the source give for `COc1cc(N2C(=O)C(Cl)(Cl)C2c2ccc(OCc3ccccc3)cc2)cc(OC)c1OC` (stereo not shown) [Compound 11h, 4-(4-Benzyloxyphenyl)-3,3-dichloro-1-(3,4,5-trimethoxyphenyl) azetidin-2-one] here?
Answer: 36300 ± 3680 nM

Question: Which IC50 ([1]; MCF-7, 72 h) does the source give for `COc1ccc(C2C(Br)C(=O)N2c2cc(OC)c(OC)c(OC)c2)cc1Cl` (stereo not shown) [Compound 16g, 3-Bromo-4-(3-chloro-4-methoxyphenyl)-1-(3,4,5-trimethoxyphenyl) azetidin-2-one] here?
Answer: 472 ± 200 nM

Question: For `COc1ccc(C2C(Br)C(=O)N2c2cc(OC)c(OC)c(OC)c2)cc1Br` (stereo not shown) [Compound 16h, 3-Bromo-4-(3-bromo-4-methoxyphenyl)-1-(3,4,5-trimethoxyphenyl) azetidin-2-one], which IC50 ([1]; MCF-7, 72 h) is on record?
Answer: 620 ± 40 nM

Question: What does the source list for `COc1cc(N2C(=O)C(Cl)(Cl)C2c2ccccc2)cc(OC)c1OC` (stereo not shown) [Compound 11a, 3,3-Dichloro-1-(3,4,5-trimethoxyphenyl)-4-phenylazetidin-2-one]?
Answer: IC50 ([1]; MCF-7, 72 h): 37200 ± 3210 nM; melting point: 80 to 81 °C

Question: What does the source list for `COc1cc(N2C(=O)C(Cl)(Cl)C2c2ccc(Oc3ccccc3)cc2)cc(OC)c1OC` (stereo not shown) [Compound 11g, 3,3-Dichloro-1-(3,4,5-trimethoxyphenyl)-4-(4-phenoxyphenyl)azetidin-2-one]?
Answer: IC50 ([1]; MCF-7, 72 h): 62300 ± 10200 nM; melting point: 82 to 84 °C

Question: For `COc1ccc(C2C(Br)C(=O)N2c2cc(OC)c(OC)c(OC)c2)cc1F` (stereo not shown) [Compound 16f, 3-Bromo-4-(3-fluoro-4-methoxyphenyl)-1-(3,4,5-trimethoxyphenyl) azetidin-2-one], which IC50 ([1]; MCF-7, 72 h) is on record?
Answer: 390 ± 30 nM

Question: With `COc1ccc(C2N(c3cc(OC)cc(OC)c3)C(=O)C2(Cl)Cl)cc1` (stereo not shown) [Compound 15a, 3,3-Dichloro-1-(3,5-dimethoxyphenyl)-4-(4-methoxyphenyl)azetidin-2-one] as the molecule, how does the IC50 ([1]; MCF-7, 72 h) read?
Answer: 6610 ± 2000 nM

Question: Which IC50 ([1]; MCF-7, 72 h) does the source give for `COc1ccc(C2C(Br)C(=O)N2c2cc(OC)c(OC)c(OC)c2)cc1C` (stereo not shown) [Compound 16e, 3-Bromo-4-(4-methoxy-3-methylphenyl)-1-(3,4,5-trimethoxyphenyl) azetidin-2-one] here?
Answer: 525 ± 30 nM

Question: With `COc1cc(N2C(=O)C(Cl)C2c2ccc(Br)cc2)cc(OC)c1OC` (stereo not shown) [Compound 10c, 4-(4-Bromophenyl)-3-chloro-1-(3,4,5-trimethoxyphenyl)azetidin-2-one] as the molecule, how does the IC50 ([1]; MCF-7, 72 h) read?
Answer: 506 ± 110 nM

Question: For `COc1ccc([C@@H]2[C@H](Cl)C(=O)N2c2cc(OC)c(OC)c(OC)c2)cc1` (relative stereo) [Compound 10e cis, Cis-3-chloro-1-(3,4,5-trimethoxyphenyl)-4-(4-methoxyphenyl) azetidin-2-one], which IC50 ([1]; MCF-7, 72 h) is on record?
Answer: 317 ± 40 nM

Question: Which IC50 [1] does the source give for `COc1ccc(C2N(c3cc(OC)c(OC)c(OC)c3)C(=O)C2(Cl)Cl)cc1OP(=O)(O)O` (stereo not shown) [Compound 18, 5-(3,3-Dichloro-1-(3,4,5-trimethoxyphenyl)-4-oxoazetidin-2-yl)-2-methoxyphenyl dihydrogen phosphate] here?
Answer: 77 ± 10 nM
